The values below come from patent US4160028A, “Substituted 2-cyclopropyl-chromones and pharmaceutical compositions and use thereof” (Carlo Erba S.p.A., priority 1977, dated 1979).

This data set is described as follows: seven days indicative acute toxicity after oral administration. The note with it: rat, in vivo, rats. Here is the method:
Seven days indicative acute toxicity after oral administration was assessed for the compounds of the invention. For example, for the compound identified by the code K 13262, a LD50 >400 mg/kg in rats was obtained.

Each structure is given as a SMILES string. Where only a bound is given, the exact number is not on record here.

In the case of `CCCc1c([C@@H]2C[C@H]2c2ccccc2)oc2ccc(C(=O)O)cc2c1=O` (relative stereo) [K 13262, trans 6-carboxy-3-propyl-2-(2-phenyl-cyclopropyl)-chromone], the median lethal dose (LD50) at 168 h is > 400 mg/kg.

The term LD50 denotes the dose expected to kill half of the subjects tested.
